Measurements taken from patent publication US10428051B2 (priority 2015, dated 2019).
pKi: −log10 of the molar value. Where two headings read alike, the source gives them in different places.

Target: human σ1 receptor (Homo sapiens, UniProt Q99720)
Assay: biochemical
Type: binding
Parameters: μ and σ1 dual (binding to the σ1 receptor and the μ-opioid receptor expressed as Ki): key to the marks not given beside the values

Chain of human σ1 receptor (Q99720 whole entry): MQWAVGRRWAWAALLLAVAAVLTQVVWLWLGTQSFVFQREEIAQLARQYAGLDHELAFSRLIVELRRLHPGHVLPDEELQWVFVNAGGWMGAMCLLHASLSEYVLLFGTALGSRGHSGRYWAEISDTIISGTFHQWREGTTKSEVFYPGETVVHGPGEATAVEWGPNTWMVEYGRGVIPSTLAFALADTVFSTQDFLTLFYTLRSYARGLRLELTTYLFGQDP

Compound	pKi	other results
CCC(=O)N(CC)CC1(N2CCN(Cc3ccccc3)CC2)CCOCC1 [Example 99, N-((4-(4-benzylpiperazin-1-yl)tetrahydro-2H-pyran-4-yl)methyl)-N-ethylpropionamide]		μ and σ1 dual (binding to the σ1 receptor and the μ-opioid receptor expressed as Ki): ++
CCC(=O)N(CC1(N2CCN(Cc3ccc(F)cn3)CC2)CC1)c1ccccc1 [Example 121, N-((1-(4-((5-fluoropyridin-2-yl)methyl)piperazin-1-yl)cyclopropyl)methyl)-N-phenylpropionamide]	< 6.30	
CCC(=O)N(CC1(N2CCN(CC(C)C)CC2)CCC1)c1cccc(C(F)(F)F)n1 [Example 203, N-((1-(4-isobutylpiperazin-1-yl)cyclobutyl)methyl)-N-(6-(trifluoromethyl)pyridin-2-yl)propionamide]	> 6.30	
CCC(=O)N(CC1(N2CCN(Cc3ccc(F)cc3)CC2)CCOCC1)c1ccccc1 [Example 105, N-((4-(4-(4-fluorobenzyl)piperazin-1-yl)tetrahydro-2H-pyran-4-yl)methyl)-N-phenylpropionamide]	> 7.00	
CCC(=O)N(CC1(N2CCN(Cc3ccccc3)CC2)CCOCC1)c1ccc(C(F)(F)F)cn1 [Example 7, N-((4-(4-benzylpiperazin-1-yl)tetrahydro-2H-pyran-4-yl)methyl)-N-(5-(trifluoromethyl)pyridin-2-yl)propionamide]		μ and σ1 dual (binding to the σ1 receptor and the μ-opioid receptor expressed as Ki): ++
CCC(=O)N(CC1(N2CCN(Cc3ccccc3)CC2)CC1)c1ccc(F)cn1 [Example 33, N-((1-(4-benzylpiperazin-1-yl)cyclopropyl)methyl)-N-(5-fluoropyridin-2-yl)propionamide]	> 6.30	
CCOCCN1CCN(C2(CN(C(=O)CC)c3cccc(C(F)(F)F)n3)CCOC3(CCCC3)C2)CC1 (stereo not shown) [Example 176, N-((9-(4-(2-ethoxyethyl)piperazin-1-yl)-6-oxaspiro[4.5]decan-9-yl)methyl)-N-(6-(trifluoromethyl)pyridin-2-yl)propionamide]	> 6.30	
CCC(=O)N(CC1(N2CCN(CC(C)C)CC2)CCOCC1)c1ccccc1 [Example 135, N-((4-(4-isobutylpiperazin-1-yl)tetrahydro-2H-pyran-4-yl)methyl)-N-phenylpropionamide]	> 6.30	
CCC(=O)N(CC1(N2CCN(CCC(C)C)CC2)CCOC2(CCCC2)C1)c1cccc(C(F)(F)F)n1 (stereo not shown) [Example 173, N-((9-(4-isopentylpiperazin-1-yl)-6-oxaspiro[4.5]decan-9-yl)methyl)-N-(6-(trifluoromethyl)pyridin-2-yl)propionamide]	> 6.30	
CCC(=O)N(CC1(N2CCN(Cc3cncc(F)c3)CC2)CCOCC1)c1ccccc1 [Example 107, N-((4-(4-((5-fluoropyridin-3-yl)methyl)piperazin-1-yl)tetrahydro-2H-pyran-4-yl)methyl)-N-phenylpropionamide]	> 6.30	
CCOCCN1CCN(C2(CN(C(=O)CC)c3ncccc3F)CCOCC2)CC1 [Example 156, N-((4-(4-(2-ethoxyethyl)piperazin-1-yl)tetrahydro-2H-pyran-4-yl)methyl)-N-(3-fluoropyridin-2-yl)propionamide]		μ and σ1 dual (binding to the σ1 receptor and the μ-opioid receptor expressed as Ki): ++
CCC(=O)N(CC1(N2CCN(C(C)CC)CC2)CCOCC1)c1ccccn1 (stereo not shown) [Example 154, N-((4-(4-sec-butylpiperazin-1-yl)tetrahydro-2H-pyran-4-yl)methyl)-N-(pyridin-2-yl)propionamide]	< 6.30	
CCC(=O)N(CC1(N2CCN(CCC(C)C)CC2)CCOCC1)c1cccc(C(F)(F)F)n1 [Example 137, N-((4-(4-isopentylpiperazin-1-yl)tetrahydro-2H-pyran-4-yl)methyl)-N-(6-(trifluoromethyl)pyridin-2-yl)propionamide]	> 7.00	
CCC(=O)N(CC1(N2CCN(Cc3ccccc3)CC2)CC1)c1nccs1 [Example 92, N-((1-(4-benzylpiperazin-1-yl)cyclopropyl)methyl)-N-(thiazol-2-yl)propionamide]	> 6.30	
CCC(=O)N(CC1(N2CCN(CCC(C)C)CC2)CCOC(C)(C)C1)c1cccc(C(F)(F)F)n1 (stereo not shown) [Example 159, N-((4-(4-isopentylpiperazin-1-yl)-2,2-dimethyltetrahydro-2H-pyran-4-yl)methyl)-N-(6-(trifluoromethyl)pyridin-2-yl)propionamide]	> 7.00	
CCC(=O)N(CC1(N2CCN(C(C)CC)CC2)CCOC(C)(C)C1)c1cccc(C(F)(F)F)n1 (stereo not shown) [Example 162, N-((4-(4-sec-butylpiperazin-1-yl)-2,2-dimethyltetrahydro-2H-pyran-4-yl)methyl)-N-(6-(trifluoromethyl)pyridin-2-yl)propionamide]	< 6.30	
CCC(=O)N(CC1(N2CCN(Cc3ccccc3)CC2)CCOCC1)c1ccccc1OC [Example 3, N-((4-(4-benzylpiperazin-1-yl)tetrahydro-2H-pyran-4-yl)methyl)-N-(2-methoxyphenyl)propionamide]	> 7.00	
CCC(=O)N(CC1(N2CCN(Cc3ccccc3)CC2)CCOCC1)c1cccc(F)c1 [Example 5, N-((4-(4-benzylpiperazin-1-yl)tetrahydro-2H-pyran-4-yl)methyl)-N-(3-fluorophenyl)propionamide]	> 7.00	
CCOc1ccc(N(CC2(N3CCN(Cc4ccccc4)CC3)CCN(C)CC2)C(=O)CC)cc1 [Example 24, N-((4-(4-benzylpiperazin-1-yl)-1-methylpiperidin-4-yl)methyl)-N-(4-ethoxyphenyl)propionamide]		pKi (combined class for both Ki-σ1 (assay A1) and Ki-μ (assay A2), human receptors, radioligand binding, read-out: μ and σ1 dual (binding to the σ1 receptor and the μ-opioid receptor expressed as Ki)): < 6.30
CCC(=O)N(CC1(N2CCN(Cc3ccccc3)CC2)CCOCC1)c1cncc(F)c1 [Example 10, N-((4-(4-benzylpiperazin-1-yl)tetrahydro-2H-pyran-4-yl)methyl)-N-(5-fluoropyridin-3-yl)propionamide]	> 6.30	
CCC(=O)N(CC1(N2CCN(CC(C)(C)OC)CC2)CCOCC1)c1cccc(C(F)(F)F)n1 [Example 191, N-((4-(4-(2-Methoxy-2-methylpropyl)piperazin-1-yl)tetrahydro-2H-pyran-4-yl)methyl)-N-(6-(trifluoromethyl)pyridin-2-yl)propionamide]	< 6.30	
CCC(=O)N(CC1(N2CCN(CC(C)C)CC2)CCOC(C)(C)C1)c1ccccn1 (stereo not shown) [Example 166, N-((4-(4-isobutylpiperazin-1-yl)-2,2-dimethyltetrahydro-2H-pyran-4-yl)methyl)-N-(pyridin-2-yl)propionamide]	< 6.30	
CCC(=O)N(CC1(N2CCN(C(CO)c3ccccc3)CC2)CCOCC1)c1ccccn1 (stereo not shown) [Example 181, N-((4-(4-(2-hydroxy-1-phenylethyl)piperazin-1-yl)tetrahydro-2H-pyran-4-yl)methyl)-N-(pyridin-2-yl)propionamide]	< 6.30	
CCC(=O)N(CC1(N2CCN(Cc3ccccc3)CC2)CCOCC1)c1ccccn1 [Example 56, N-((4-(4-benzylpiperazin-1-yl)tetrahydro-2H-pyran-4-yl)methyl)-N-(pyridin-2-yl)propionamide]	> 6.30	
CCNC(=O)N(CC1(N2CCN(Cc3ccccc3)CC2)CCOCC1)c1ccccn1 [Example 49, 1-((4-(4-benzylpiperazin-1-yl)tetrahydro-2H-pyran-4-yl)methyl)-3-ethyl-1-(pyridin-2-yl)urea]		μ and σ1 dual (binding to the σ1 receptor and the μ-opioid receptor expressed as Ki): ++
